# Laboratory results published in patent publication US20030207854A1, “Antiprogestins with partial agonist activity” (priority 2002, published 2003).
# Like-named read-outs stand apart in the source and are kept apart here.
# Key:
# [1] = biological target: T1, human PR-B (Homo sapiens, UniProt P06401); assay: PR-B transactivation of MMTVLuc reporter in transiently transfected 1470.2 cells; type: cell-based; details: for EC50: read-out: EC50 from dose-response curves
# T1 construct: expressed in transfected cells; host or cells: 1470.2 mouse mammary adenocarcinoma cells
# T1 sequence (P06401 1-933): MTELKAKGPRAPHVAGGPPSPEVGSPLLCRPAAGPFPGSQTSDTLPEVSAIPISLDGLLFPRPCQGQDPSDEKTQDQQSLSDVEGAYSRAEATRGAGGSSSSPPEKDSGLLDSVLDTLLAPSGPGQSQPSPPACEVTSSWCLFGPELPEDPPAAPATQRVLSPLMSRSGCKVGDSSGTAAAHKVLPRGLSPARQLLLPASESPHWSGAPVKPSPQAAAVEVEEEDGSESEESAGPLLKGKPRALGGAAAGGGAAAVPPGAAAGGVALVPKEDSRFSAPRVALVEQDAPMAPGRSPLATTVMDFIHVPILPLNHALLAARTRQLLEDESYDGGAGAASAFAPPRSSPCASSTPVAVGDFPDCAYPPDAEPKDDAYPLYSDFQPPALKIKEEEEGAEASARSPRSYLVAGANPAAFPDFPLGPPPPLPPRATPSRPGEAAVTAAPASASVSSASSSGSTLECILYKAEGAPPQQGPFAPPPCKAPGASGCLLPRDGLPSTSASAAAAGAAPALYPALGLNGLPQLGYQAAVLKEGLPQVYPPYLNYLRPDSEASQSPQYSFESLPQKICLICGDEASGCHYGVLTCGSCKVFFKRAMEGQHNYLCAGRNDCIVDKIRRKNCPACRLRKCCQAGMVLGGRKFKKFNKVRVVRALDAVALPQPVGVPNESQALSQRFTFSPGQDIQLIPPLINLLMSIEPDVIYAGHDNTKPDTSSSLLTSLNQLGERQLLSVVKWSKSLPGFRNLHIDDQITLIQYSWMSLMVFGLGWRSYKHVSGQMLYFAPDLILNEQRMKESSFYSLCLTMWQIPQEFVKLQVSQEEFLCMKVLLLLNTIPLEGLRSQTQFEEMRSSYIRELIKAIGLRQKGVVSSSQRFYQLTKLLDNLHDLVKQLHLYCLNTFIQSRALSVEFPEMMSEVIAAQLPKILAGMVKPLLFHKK
# Source text: All data were normalized for Renilla expression. […] The error bars represent the SD of triplicate plates.
# All data were normalized for protein levels in the cell lysates. […] The error bars represent the SD of triplicate plates.
# All data were normalized for Renilla expression.
# [2] = biological target: T2, PR (Homo sapiens, UniProt P06401)
# T2 sequence (P06401 1-933): T1 sequence (P06401 1-933)
# Source text: The absolute levels of luciferase activity (±S.D. of triplicate values) were plotted.
# [3] = biological target: T2, PR; type: cell-based; design: expressed in transfected cells; host or cells: CV-1 cells
# Method: Cell culture and transfection: Monolayer cultures of COS-7 cells were grown at 37° C. with 5% CO2 in Dulbecco's modified Eagle's medium (DMEM; GIBCO/BRL Life Technologies, Inc.) supplemented with 5% of fetal bovine serum, respectively. The 1470.2 mouse mammary adenocarcinoma cells (Pennie et al., Mol Cell Biol 15:2125-2134, 1995) were grown in DMEM with 4.5 g glucose/L (Quality Biologicals, Inc.) whereas T47D cells were grown in Dulbecco's modified Eagle's medium with high glucose (4.5 g/L, 2 mM glutamine, and 60 ng/ml insulin), both with 10% of fetal bovine serum. The 1470.2 cells were transiently transfected with the human PR-B construct, 1 μg of MMTVLuc, and 50 ng Renilla null luciferase, with the total transfected DNA brought up to 3 μg/60 mm dish with pBSK^+DNA, using the calcium phosphate method as previously described (Szapary et al., J Biol Chem 271:30576-30582, 1996). Following 24 h of steroid treatment, the cells were harvested in 1× Passive Lysis Buffer (0.5 ml/dish; Promega, Madison, Wis.). Twenty μl of the cell lysates were used to assay for luciferase activity using the Dual-Luciferase Assay System from Promega (Madison, Wis.) and the methods recommended by the supplier. […]
# [4] = 1470.2 cells, transfected human PR-B, MMTVLuc reporter
SMILES,partial progestin activity with added PR [1],EC50 [1] [µM],antiprogestin activity: inhibition of the action of 300 pM R5020 [2],agonist activity in CV-1 cells [3],"partial progestin activity with added PR ([1]; 1470.2 cells, 3 or 30 ng PR-B plasmid, 1 μM steroid, FIG. 5B)","EC50 [1, 4] [µM]","antiprogestin activity: inhibition of the action of 300 pM R5020 ([2]; 1 μM and 10 μM Dex-Mes, 1 μM Dex-Ox, FIG. 7)",agonist activity in CV-1 cells ([3]; CV-1 cells)
"C[C@@H]1C[C@H]2[C@@H]3CCC4=CC(=O)C=C[C@]4(C)[C@@]3(F)[C@@H](O)C[C@]2(C)[C@]12OCC2=O [Dex-Ox, dexamethasone oxetanone]",significant amounts of partial progestin activity,~0.03,reduced the activity of 300 pM R5020 to that of the competing steroid alone,much more agonist activity than either RIT 3021-020 or RU 486,–,–,–,–
"C[C@@H]1C[C@H]2[C@@H]3CCC4=CC(=O)C=C[C@]4(C)[C@@]3(F)[C@@H](O)C[C@]2(C)[C@@]1(O)C(=O)COS(C)(=O)=O [Dex-Mes, dexamethasone 21-mesylate]",–,–,–,–,significant amounts of partial progestin activity,~0.35,reduced the activity of 300 pM R5020 to that of the competing steroid alone,much more agonist activity than either RIT 3021-020 or RU 486
"CCC(=O)[C@@]1(C)CC[C@H]2[C@@H]3CCC4=CC(=O)CCC4=C3CC[C@@]21C [R5020, promegestone, reference compound]",–,–,–,–,–,0.0004,–,–
